Structures are written as SMILES.

The results in this text go back to paper PMC7321169, “N-Alkylaminoferrocene-Based Prodrugs Targeting Mitochondria of Cancer Cells” (Molecules, 2020).

The nature of data set [1]: Generation of ROS in cell free settings (2′,7′-dichlorofluorescin oxidation in the presence of H2O2). Conditions: H2O2 10 mM; for Initial rate (dF/dt)0 of DCFH oxidation in the presence of H2O2: compound 49.5 μM, DCFH 10 μM, GSH 5 mM, EDTA 10 mM, MOPS buffer, 37 °C; for Activity in DCFH oxidation assay relative to prodrug 5: more active than 5, 49.5 μM. On the procedure:
2′,7′-Dichlorofluorescin diacetate (DCFH-DA, 4.9 mg) was dissolved in 100 µL DMF and mixed with 0.1 M NaOH (900 µL). This mixture was incubated on a shaker for 30 min at 25 °C in the dark to obtain 10 mM 2′,7′-dichlorofluorescin (DCFH) stock solution. Next, 3-(N-morpholino)propanesulfonic acid buffer (MOPS buffer 100 mM, pH: 7.4) containing N,N,N’,N’-ethylenediaminetetraacetic acid (EDTA, 10 mM), glutathione (GSH, 5 mM) and H2O2 (10 mM) was prepared. Finally, DCFH was diluted in this buffer to 10 µM as the final concentration. Monitoring of the fluorescence was started (λex: 501 nm, λem: 525 nm). […] DMF and FeSO4 in DMF were used as controls. The measurement was conducted for 300 min (Table S2, Figure 1A).

A further data set deals with DU-145 cells. In words: Viability of adherent DU-145 cells (MTT). Format: cell-based, human. How it is done: (§1) Adherent A2780, DU-145 and NHDF cells were grown as mentioned before. Then, the cells were resuspended in the RPMI 1640 (DMEM for HDFa cell line) medium containing 5% FBS (for 24- and 48 h assays) or 10% FBS (for 96 h assays) 1% L-glutamine, and 1% penicillin/streptomycin. This suspension was spread in the wells of a 96-well microtiter plate. Every well in the plates contained 25,000 cells (exceptions: 12,500 cells for the 96h-assay and 10,000 cells for experiments with HDFa cell line) per well per 100 μL and was left at 37 °C in the chamber filled with CO2 (5%) overnight. Stock solutions of prodrugs of different concentrations (1 μL, solvent DMSO) were added to the wells and incubated for 24–96 h. Four experiments were conducted for each concentration of the prodrug. Finally, 3-(4,5-dimethylthiazol-2-yl)-2,5-diphenyltetrazolium bromide (MTT; 20 μL of the solution prepared by dissolving MTT (5 mg) in PBS buffer (1 mL)) was added to each well, incubated for 3 h, treated with sodium dodecyl sulfate (SDS) solution (90 μL, 10% solution in 0.01 M aqueous HCl), and incubated overnight. Then the intensity of absorbance at 590 nm was measured (MTT is converted to blue dye (λmax = 590 nm) in live cells). The absorbance at 690 nm was taken as a baseline value.

The next data set has as its system HDFa cells. In words: Viability of adherent HDFa cells (MTT). The settings on record: 48 h incubation, normal cells. Format: cell-based, human. On the procedure: as §1
The subject of data set [2] is Jurkat cells. In words: Viability and cell death of Jurkat cells (Annexin A5-FITC/PI flow cytometry). The data set is classed as cell-based, human. Conditions: for Mechanism of cell death of Jurkat cells: 48 h, Ax/PI staining; for IC50: 48 h incubation. How it is done:
Jurkat cells were counted in MUSE Cell Analyzer using MUSE® Count &Viability Assay Kit (Merck-Millipore, Billerica, MA, USA) and adjusted to a density of 1.0 × 10^5/mL in RPMI 1640 medium (with 10% FCS and 1% glutamine). A total of 9000 cells per well per 90 μL were seeded into 96 well culture plates. The 50 mM prodrug stock solutions were diluted to 300, 100, 30, and 10 μM in cell culture medium and 10 μL of the dilutions was pipetted to the cells, receiving final test concentrations of 30, 10, 3, and 1 μM. Every concentration was tested in triplicates. Cells with corresponding amounts of DMSO served as negative controls. […] was incubated with 200 μL of freshly prepared staining solution, consisting of 1 μl Annexin A5-Fitc, 0.4 μL 1,1′,3,3,3′,3′-hexamethylindodicarbocyanine iodide (DiIC1(5)) (both from Thermo Fisher Scientific, Waltham, MA, USA), 66.6 ng propidiumiodide (PI) and 33 μM monobromobimane (MBB, both from Sigma-Aldrich, Taufkirchen, Germany) per 1 mL Ringer’s solution (Fresenius Kabi AG, Bad Homburg, Germany). Cells were incubated for 20 min at 4 °C and then analyzed in Gallios cytofluorometer™ (Beckman Coulter, Fullerton, CA, USA). Fitc and propidium iodide were excited at 488 nm; Fitc fluorescence was recorded on the FL1 sensor (525/38 nm band pass, BP) and propidium iodide fluorescence was detected on FL3 sensor (620/30 nm BP), DiIC1(5) fluorescence was excited at 638 nm and detected on FL6 sensor at 675/20 nm. Monobromobimane fluorescence was excited at 405 nm and detected on FL9 sensor at 430/40 nm. To eliminate any fluorescence bleed-through, electronic compensation was used. Data were analyzed employing Kaluza™ software Version 1.2 (Beckman Coulter, Fullerton, CA, USA) and processed in Microsoft Excel. Cells negative for Annexin A5- Fitc and propidium iodide were considered viable. IC50 values were determined by fitting the % values of Ax-PI- cells versus drug concentration with a sigmoidal curve using GraphPad Prism software. Reduced glutathione (an intracellular thiol) can be detected by monobromobimane, a dye that becomes fluorescent after non-enzymatic binding to thiols. For analysis of the amount of mitochondrial membrane potential or reduced glutathione, the mean fluorescence index (MFI) was determined from viable cells by gating on Ax-PI-events.

The subject of a further data set is A2780 cells. In words: Viability of adherent A2780 cells (MTT). Format: cell-based, human. On the procedure:
as §1

Another data set relates to BL-2 cells. In words: Viability of suspension BL-2 cells (MTT). Format: cell-based. How it is done:
The suspension of BL-2 cells in the RPMI 1640 medium containing 5% FBS (for 24- and 48 h assays) or 10% FBS (for 96 h assays) 1% L-glutamine, and 1% penicillin/streptomycin was spread in the wells of a 96-well microtiter plate. Every plate contained 50,000 cells (with the exception of the 96h-experiment, for which 25,000 cells were used) per well per 100 μL. Stock solutions of prodrugs of different concentrations (1 μL, solvent DMSO) were added to the wells and incubated for 24–96 h. Four experiments were conducted for each concentration of the prodrug. Finally, 3-(4,5-dimethylthiazol-2-yl)-2,5-diphenyltetrazolium bromide (MTT; 20 μL of the solution prepared by dissolving MTT (5 mg) in PBS buffer (1 mL)) was added to each well, incubated for 3 h, treated with sodium dodecyl sulfate (SDS) solution (90 μL, 10% solution in 0.01 M aqueous HCl), and incubated overnight. Then the intensity of absorbance at 590 nm was measured (MTT is converted to blue dye (λmax = 590 nm) in live cells). The absorbance at 690 nm was taken as a baseline value.

A short description of data set [3]: Solubility of prodrugs in aqueous buffers (absorbance at 790 nm). The data set is classed as physicochemical. On the procedure:
Prodrugs 5, 7 and 9 (known control) were dissolved in DMSO at concentrations of 15, 10, 5, 2, 1.5, 1, and 0.2 mM. These solutions (10 μL) were transferred to quartz cuvettes containing 990 μL of either Dulbecco's phosphate-buffered saline (DPBS) or Roswell Park Memorial Institute (RPMI) medium containing 20% of fetal bovine serum (FBS) to obtain solutions (or suspensions) with final concentrations of prodrugs-150, 100, 50, 20, 15, 10, and 2 μM. The absorbance at 790 nm of the resulting solutions/suspensions was measured and plotted as a function of the concentration of prodrugs.

In data set [4] the test system is Jurkat cells. In words: Mitochondrial membrane potential of Jurkat cells (DiIC1(5)). The data set is classed as cell-based, human. The settings on record: 48 h; 5 at nontoxic concentrations ≤ 10 μM; 12 at all tested concentrations. On the procedure:
Jurkat cells were counted in MUSE Cell Analyzer using MUSE® Count &Viability Assay Kit (Merck-Millipore, Billerica, MA, USA) and adjusted to a density of 1.0 × 10^5/mL in RPMI 1640 medium (with 10% FCS and 1% glutamine). A total of 9000 cells per well per 90 μL were seeded into 96 well culture plates. The 50 mM prodrug stock solutions were diluted to 300, 100, 30, and 10 μM in cell culture medium and 10 μL of the dilutions was pipetted to the cells, receiving final test concentrations of 30, 10, 3, and 1 μM. Every concentration was tested in triplicates. Cells with corresponding amounts of DMSO served as negative controls. […] Cells were incubated for 20 min at 4 °C and then analyzed in Gallios cytofluorometer™ (Beckman Coulter, Fullerton, CA, USA). Fitc and propidium iodide were excited at 488 nm; Fitc fluorescence was recorded on the FL1 sensor (525/38 nm band pass, BP) and propidium iodide fluorescence was detected on FL3 sensor (620/30 nm BP), DiIC1(5) fluorescence was excited at 638 nm and detected on FL6 sensor at 675/20 nm. Monobromobimane fluorescence was excited at 405 nm and detected on FL9 sensor at 430/40 nm. To eliminate any fluorescence bleed-through, electronic compensation was used. Data were analyzed employing Kaluza™ software Version 1.2 (Beckman Coulter, Fullerton, CA, USA) and processed in Microsoft Excel. […]

Regarding `O=S(=O)([O-])[O-].[Fe+2]` [FeSO4], in data set [1], the “Initial rate (dF/dt)0 of DCFH oxidation in the presence of H2O2” value came to 22.3 a.u. × min^−1 and the “Activity in DCFH oxidation assay relative to prodrug 5” value is 2.9 fold.

For orientation: IC50 means the concentration at which inhibition is half-maximal. Take `COC(=O)CCCCCn1cc(CN(C(=O)OCc2ccc(B3OC(C)(C)C(C)(C)O3)cc2)[c-]2cccc2)nn1.[Fe+2].c1cc[cH-]c1` [prodrug 9]: the IC50 is more than 50 µM in the data set on DU-145 cells (24 h incubation); 47 ± 2 µM in the data set with DU-145 cells (48 h incubation); 35 ± 3 µM in the data set with DU-145 cells (96 h incubation); more than 50 µM in the data set on HDFa cells; 30 ± 4 µM with Jurkat cells [2]; 42 ± 3 µM in the data set on A2780 cells (24 h incubation). The IC50 came to 32 ± 3 µM with A2780 cells (48 h incubation); 30 ± 5 µM with A2780 cells (96 h incubation); 37 ± 2 µM with BL-2 cells (24 h incubation); 35 ± 2 µM in the data set on BL-2 cells (48 h incubation); 33 ± 2 µM in the data set on BL-2 cells (96 h incubation). The “Mechanism of cell death of Jurkat cells” value in the data set on Jurkat cells [2] is given as “mostly via necrosis”. For the same compound, the “Solubility in DPBS” value in data set [3] (DPBS containing DMSO (1%, v/v)) is 90 ± 10 µM. Besides, the “Solubility in FBS” value in data set [3] (RPMI medium containing 20% FBS and DMSO (1%, v/v)) was 114 ± 11 µM.

Turning to `[Fe+2].c1cc[cH-]c1.c1cc[cH-]c1` [control 11, ferrocene], the IC50 in the data set on DU-145 cells (24 h incubation), in the data set on DU-145 cells (48 h incubation), in the data set on DU-145 cells (96 h incubation), in the data set with Jurkat cells [2], in the data set on A2780 cells (24 h incubation) and in the data set on A2780 cells (48 h incubation) was more than 50 µM in each case. Also, the IC50 in the data set with A2780 cells (96 h incubation), in the data set with BL-2 cells (24 h incubation), in the data set on BL-2 cells (48 h incubation) and in the data set with BL-2 cells (96 h incubation) was more than 50 µM each time.

As to `CCCC[P+](c1ccccc1)(c1ccccc1)c1ccccc1` [control 12], the half-maximal inhibitory concentration (IC50) in the data set with HDFa cells (Homo sapiens, HDFa) is less than 1 µM; in the data set with BL-2 cells (BL2, 24 h incubation), 2 ± 1 µM; in the data set on BL-2 cells (BL2, 48 h incubation), 0.5 ± 0.2 µM; in the data set on BL-2 cells (BL2, 96 h incubation), 0.3 ± 0.1 µM. In addition, the “Effect on mitochondrial potential of Jurkat cells” value with Jurkat cells [4] is reported as “reduces the mitochondrial potential”. The “Mechanism of cell death of Jurkat cells” value in the data set on Jurkat cells [2] is “mostly via necrosis”.

Regarding `CC1(C)OB(c2ccc(COC(=O)N(Cc3cccc(CN4CCCCC4)c3)[c-]3cccc3)cc2)OC1(C)C.[Fe+2].c1cc[cH-]c1` [prodrug 8], in data set [1], the “Initial rate (dF/dt)0 of DCFH oxidation in the presence of H2O2” value is recorded as 17.1 a.u. × min^−1 and the “Activity in DCFH oxidation assay relative to prodrug 5” value is reported as 2.2 fold.

As to `C#Cc1ccc(-c2c3ccc(=[N+](C)C)cc-3oc3cc(N(C)C)ccc23)c(C(=O)[O-])c1` [control 13], the IC50 in the data set with A2780 cells (Homo sapiens, A2780, 48 h incubation) is more than 50 µM; with BL-2 cells (BL2, 48 h incubation), 35 ± 6 µM.
